The record followed here is patent US20070015828A1 (Wyeth, priority 2005, published 2007).

What all share (format): physicochemical
One series in a line: pH-Solubility. The following applies: free base.
Another series in a line: Hygroscopicity.
A short description of series [1]: Solution Stability in aqueous solutions. Particulars: room temperature, all aqueous solutions (pH 1.6-10.5).
Series [2] can be described thus: Octanol/Water Partitioning Coefficient. Particulars: @ pH 6.

With `COC1CCC(O)(C(CN(C)C)c2ccc(O)cc2)CC1` (stereo not drawn) [4-[2-dimethylamino-1-(cis-1-hydroxy-4-methoxy-cyclohexyl)-ethyl]-phenol], the pH-Solubility result is “Final pH 1.60 >10.71 mg/ml” in “pH-Solubility” (Final pH 1.60); “Final pH 7.62 >10.00 mg/ml” in “pH-Solubility” (Final pH 7.62); “Final pH 8.21 >10.00 mg/ml” in the series “pH-Solubility” (Final pH 8.21); “Final pH 9.00 7.65 mg/ml” in “pH-Solubility” (Final pH 9.00); “Final pH 10.5 7.65 mg/ml” in the series “pH-Solubility” (Final pH 10.5). Also, the Hygroscopicity entry in the series “Hygroscopicity” is listed as “Non-hygroscopic”. In addition, the “Hygroscopicity, weight gain” value is on record as 0.44% in the series “Hygroscopicity” (@ 60% RH) and 60% RH, 1.2% weight gain @ 90% RH, in “Hygroscopicity” (@ 90% RH, weight gain was lost when returned to 10% RH or 0% RH). Also, the “Solution Stability, time stable” value in series [1] is listed as “The compound was stable for at least 72 hours”. Besides, the “Octanol/Water Partitioning Coefficient Coct/Caq” value in series [2] was “Coct/Caq @ pH 6 = 6.857”.

As to `CN(C)CC(c1ccc(O)cc1)[C@]1(O)CC[C@@H](O)CC1.O=C(O)CCC(=O)O` (stereo partly drawn) [Succinate salt, 1-[2-dimethylamino-1-(4-phenol)ethyl]-cis-1,4-cyclohexandiol succinate], the Hygroscopicity result in “Hygroscopicity” is recorded as “hygroscopic”.
